This note sets out measurements from PubChem BioAssay (NCI).

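These data come from cells grown in 96-well plates and exposed to compound for 48 hours at five concentrations. TGI marks complete inhibition of growth.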

Among the test systems are MCF7 breast; SF-539 CNS; UACC-257 melanoma; NCI-H23 lung; MALME-3M melanoma; MDA-N; U251 CNS; OVCAR-8 ovarian; RPMI-8226 leukemia; MDA-MB-231 breast; A549 NSCLC; RXF 393 renal; SR leukemia; CAKI-1 renal; HL-60(TB) leukemia; M14 melanoma; LOX IMVI melanoma; HT29 colon; NCI-H522 lung.
Assay in all cases: DTP human tumour cell line panel, 48 h

For orientation: TGI means the concentration giving total growth inhibition. With `COc1cccc(Nc2nc(N)nc(N)c2N)c1`, the TGI in the assay on MCF7 breast is 95 µM; with SF-539 CNS it was more than 100 µM; with UACC-257 melanoma it was more than 100 µM; in the assay on NCI-H23 lung it was more than 100 µM; in the assay on MALME-3M melanoma, more than 100 µM; in the assay on MDA-N, 36.8 µM. Also, the TGI with U251 CNS was more than 100 µM; with OVCAR-8 ovarian it was more than 100 µM; in the assay on RPMI-8226 leukemia, 68.3 µM; with MDA-MB-231 breast it was 58.5 µM; with A549 NSCLC, more than 100 µM; in the assay on RXF 393 renal, more than 100 µM. Besides, the TGI is 49.6 µM with SR leukemia; 58.3 µM in the assay on CAKI-1 renal; more than 100 µM with HL-60(TB) leukemia; more than 100 µM with M14 melanoma; 40.2 µM with LOX IMVI melanoma; more than 100 µM with HT29 colon. Also, the total growth inhibition concentration (TGI) in the assay with NCI-H522 lung is more than 100 µM.
For the compound `CCS(=O)(=O)CCn1c(=O)c2c(ncn2C)n(C)c1=O`, the TGI in the assay on MCF7 breast, with SF-539 CNS, with UACC-257 melanoma, with NCI-H23 lung, in the assay on MALME-3M melanoma and in the assay on MDA-N was more than 100 µM throughout. In addition, the TGI in the assay with U251 CNS, with OVCAR-8 ovarian, in the assay with RPMI-8226 leukemia, in the assay with MDA-MB-231 breast, in the assay on A549 NSCLC and in the assay on RXF 393 renal was more than 100 µM each time. Also, the TGI with SR leukemia, in the assay with CAKI-1 renal, with HL-60(TB) leukemia, in the assay on M14 melanoma, in the assay with LOX IMVI melanoma and in the assay with HT29 colon was more than 100 µM throughout. Further, the TGI in the assay on NCI-H522 lung is more than 100 µM.
For the compound `O=C(N/N=C/c1ccc([N+](=O)[O-])cc1)Nc1ccc(Br)cc1`, the TGI in the assay on MCF7 breast, in the assay on SF-539 CNS, with UACC-257 melanoma, in the assay with NCI-H23 lung, with MALME-3M melanoma and in the assay on MDA-N was more than 100 µM throughout. For the same compound, the TGI with U251 CNS, in the assay with OVCAR-8 ovarian, in the assay on RPMI-8226 leukemia, in the assay on MDA-MB-231 breast, in the assay with A549 NSCLC and in the assay on RXF 393 renal was more than 100 µM in each case. Besides, the TGI in the assay with SR leukemia, in the assay on CAKI-1 renal, with HL-60(TB) leukemia, in the assay with M14 melanoma, in the assay on LOX IMVI melanoma and in the assay on HT29 colon was more than 100 µM in each case. Besides, the TGI in the assay with NCI-H522 lung was more than 100 µM.
For the compound `NC(=O)SCCC(N)C(=O)O` (stereo unspecified), the TGI in the assay with MCF7 breast, in the assay with SF-539 CNS, with UACC-257 melanoma, in the assay on NCI-H23 lung, in the assay on MALME-3M melanoma and with MDA-N was more than 100 µM each time. Besides, the TGI in the assay on U251 CNS, in the assay on OVCAR-8 ovarian, with RPMI-8226 leukemia, with MDA-MB-231 breast, with A549 NSCLC and with RXF 393 renal was more than 100 µM each time. Besides, the TGI in the assay on SR leukemia, in the assay with CAKI-1 renal, with HL-60(TB) leukemia, with M14 melanoma, in the assay on LOX IMVI melanoma and with HT29 colon was more than 100 µM in each case. The compound further registered a TGI in the assay on NCI-H522 lung of more than 100 µM.
As to `O=S(=O)(SC1=NCCN1)c1cccc2ccccc12`, the TGI in the assay with MCF7 breast was more than 100 µM; in the assay on SF-539 CNS, 49.6 µM; in the assay with UACC-257 melanoma, more than 100 µM; with NCI-H23 lung, 91.2 µM; in the assay with MALME-3M melanoma, more than 100 µM; in the assay on MDA-N, 39.4 µM. For the same compound, the TGI with U251 CNS was more than 100 µM; with OVCAR-8 ovarian, more than 100 µM; with RPMI-8226 leukemia, 66.6 µM; with MDA-MB-231 breast, 45.6 µM; in the assay with A549 NSCLC, 67.8 µM; in the assay with RXF 393 renal, 71.8 µM. Besides, the TGI in the assay on SR leukemia was more than 10 µM; in the assay with CAKI-1 renal, 59.9 µM; with HL-60(TB) leukemia, more than 10 µM; in the assay on M14 melanoma, more than 100 µM; in the assay with LOX IMVI melanoma, more than 100 µM; in the assay on HT29 colon, more than 100 µM. This compound also yielded a TGI with NCI-H522 lung of 36.2 µM.
Turning to `O=C(NC(Cc1cnc[nH]1)C(=O)N1CCCC1)C1CCCC1` (stereo unspecified), the TGI in the assay on MCF7 breast, with NCI-H23 lung, with MALME-3M melanoma, in the assay with MDA-N, in the assay on U251 CNS and in the assay with OVCAR-8 ovarian was more than 100 µM throughout. Besides, the TGI with RPMI-8226 leukemia, in the assay on MDA-MB-231 breast, in the assay on A549 NSCLC, in the assay with RXF 393 renal, in the assay on SR leukemia and with CAKI-1 renal was more than 100 µM each time. Further, the TGI in the assay with HL-60(TB) leukemia, in the assay on M14 melanoma, with LOX IMVI melanoma, in the assay on HT29 colon and with NCI-H522 lung was more than 100 µM each time.
`CC1CN(c2cc3c(cc2F)c(=O)c(C(=O)O)cn3-c2ccc(F)cn2)CC(C)N1` (stereo unspecified): the TGI in the assay on MCF7 breast, with SF-539 CNS, with UACC-257 melanoma, with NCI-H23 lung, in the assay with MALME-3M melanoma and in the assay on MDA-N was more than 100 µM each time. Moreover, the TGI in the assay with U251 CNS, in the assay with OVCAR-8 ovarian, with RPMI-8226 leukemia, in the assay on MDA-MB-231 breast, in the assay with A549 NSCLC and in the assay with RXF 393 renal was more than 100 µM throughout. The concentration for total growth inhibition (TGI) in the assay on SR leukemia, in the assay on CAKI-1 renal, in the assay with HL-60(TB) leukemia, with M14 melanoma, with LOX IMVI melanoma and in the assay on HT29 colon was more than 100 µM throughout. In the assay with NCI-H522 lung, this compound had a TGI of more than 100 µM.
